# Source: article PMC4589238, “Acute Biphasic Effects of Ayahuasca” (PLoS ONE, 2015)
# Read-outs that look alike come from different tables or passages of the source.
# Legend:
# [1] = Plasma concentrations of ayahuasca compounds and metabolites after oral ayahuasca (LC/MS/MS); assay type: in vivo, human; settings: for Cmax: po
# Text: A sample of six liters of "Hoasca" was donated by the União do Vegetal (UDV) church in Brazil for the specific purpose of use in this study. Quantification of the main compounds in the brew was done with liquid chromatography-electrospray ionization-tandem mass spectrometry (LC/MS/MS). The screening included the following compounds: DMT, DMT‐N‐oxide (DMT-NO), N‐methyltryptamine (NMT), indoleacetic acid (IAA), 5‐hydroxy‐DMT (5-OH-DMT, or bufotenin), 5‐methoxy‐DMT (5-MeO-DMT), Harmine, Harmol, Harmaline, Harmalol, THH, 7‐hydroxy‐tetrahydroharmine (THH-OH), and 2‐methyl‐tetrahydro‐beta‐carboline (2-MTHBC). The original liquid volume was then reduced to 50% using a rotary evaporator to decrease the amount of liquid intake.
# Blood was collected in sterile EDTA containing tubes. Ten blood samples (3 mL each) were collected every 25 minutes, starting 25 minutes before ayahuasca ingestion and ending 200 minutes after ingestion (in a total of ten samples for each individual). Blood was collected by a professional nurse, with a catheter that remained in place during the entire time of the study. Each tube was carefully and slowly turned upside-down three times and then stored at 0°C until all ten samples were collected. Blood samples were then centrifuged at 2000 rpm for 10 min at 4°C and the resulting plasma immediately collected and frozen at -80°C. The frozen plasma samples were stored at -80°C until shipped on dry ice to USA for analysis according to [31]. Compounds included in this screening were DMT, DMT-NO, NMT, IAA, 5-OH-DMT (bufotenin), 5-MeO-DMT, Harmine, Harmol, Harmaline, Harmalol, THH, THH-OH and 2-MTHBC.
# Two volunteers opted out of blood collection, and data from one volunteer was discarded due to high hemolysis in the blood samples. Therefore data were available from 16 volunteers. Maximum plasma Concentration (Cmax), Time for maximum plasma concentration (Tmax) and area under the curve (AUC) of ten identified compounds are summarized in Table 2. […] No significant differences were found between men and women for any of the identified compounds in blood. […] There were no significant correlations between time to vomit and Cmax or AUC.
# healthy volunteers = assay: Association between plasma concentration and EEG spectral changes (generalized linear models); assay type: in vivo, human
# Procedure: Relationships between plasma concentration of identified compounds and spectral changes in the six frequency bands evaluated were calculated by fitting generalized linear models (glmfit function in MATLAB) for each compound and frequency band. This analysis was followed by the non-parametric cluster based correction with 5000 permutations.
# Results were considered statistically significant when p <0.05. Effect sizes are also reported, using Partial eta squared (partial η^2) for the main frequency clusters and Cohen’s d for the generalized linear models.
# MAO-A = tested on: MAO-A; set-up: method as in PMID 19879939; settings: cited from earlier work
# human subjects = settings: cited from earlier work
# rats = tested on: rats; set-up: method as in PMID 9649961; settings: cited from earlier work
smiles,measurement,setting,value
COc1ccc2c3c([nH]c2c1)C(C)=NCC3 [Harmaline],Cmax,"[1]; both sexes, human, in vivo, plasma, 16 volunteers, oral ayahuasca, sampling to 200 min, read-out: Cmax (mean ± sd)",14.7 ± 13.9 ng/mL
same,Cmax,"[1]; both sexes, human, in vivo, plasma, 16 volunteers, oral ayahuasca, read-out: Cmax (min—max)",1.56 to 44.4 ng/mL
same,Tmax,"[1]; both sexes, human, in vivo, plasma, 16 volunteers, oral ayahuasca, read-out: Tmax (mean ± sd) (converted)",2.68 h
same,Time to reach plateau of plasma level in the group average,"[1]; from ayahuasca ingestion, group average curve",100 min
same,AUC (min—max),"[1]; plasma, 16 volunteers, oral ayahuasca",6.16 to 199.78 g·min/mL
same,Clusters between plasma concentration and EEG spectra,"healthy volunteers; delta, theta and beta frequency bands",did not show any significant clusters
same,"Cohen's d, plasma concentration vs alpha band power decrease",healthy volunteers; left centro-parieto-occipito-frontal electrodes,0.0285
same,"Cohen's d, plasma concentration vs slow-gamma power increase",healthy volunteers; left fronto-temporo-centro-parieto-occipital electrodes also extending to right temporo-parietal electrodes,0.0885
same,"Cohen's d, plasma concentration vs fast-gamma power increase",healthy volunteers; one large widespread bilateral cluster,0.0032
same,"Cohen's d, plasma concentration vs alpha band power decrease","healthy volunteers; right central electrodes (C2, C4, CP4 and CP6)",0.2944
same,"Cohen's d, plasma concentration vs slow-gamma power increase",healthy volunteers; right frontal electrodes,0.0401
same,Potency at inhibiting MAO-A relative to MAO-B,MAO-A,"10,000 fold"
same,Dose necessary for psychoactivity,human subjects; oral or i.v. administration,4 mg/kg
same,Orally psychoactive dose,human subjects; oral,300 to 400 mg
same,Substitution in drug discrimination,rats,substitute the psychedelic DOM
